Assay results as given in patent US20210292755A1, “NOVEL DOUBLE-STRANDED OLIGONUCLEOTIDES FOR THE TREATMENT OF CANCER” (SELEXEL, priority 2016, published 2021).

How the values were obtained:
[1] = test system: 22RV1 human prostatic tumor; assay: Subcutaneous tumor volume in mice; format: in vivo; settings: twice a week
Description: Tumors are obtained by subcutaneous injection of tumor cells into the flank of Nude mice. Only animals on which tumor uptake is found are included in the study and randomized to receive treatment or control treatment.
When indicated, the continuous administration of siRNA is carried out by implantation of an Alzet osmotic pump subcutaneously on the back of the mice, on the opposite side to the tumor when the mice wear one. The concentration of siRNA in the pump is adjusted to deliver the indicated amount in mg/kg/day taking into account the pump flow rate indicated by the manufacturer.
The subcutaneous tumors volume is estimated by measuring with a calliper the largest (D), the smallest (d) diameter of the tumors and their height (h). The volume is calculated by the formula V=D×d×h×Pi/6.

γH2AX = assay: Indirect immunofluorescence of γH2AX, bleomycin-treated transfected cells; format: cell-based, human
Description: (§1) FIG. 8: Immuno detection of γH2AX (first column) and 53BP1 (second column) in C4-2 cells treated for 6 h with bleomycin ([…]) or the vehicle added 72 h after transfection of cells by a control siRNA (Cont), siAR7 siRNA, or siARH2AX-1.
(§2) All the cells used in the following examples are human cells and express H2AX.
(§3) The cells are cultured in DMEM or RPMI supplemented with 10% fetal calf serum, or as recommended by the ATCC. When indicated, they are transfected with siRNA using lipofectamine (Life Technologies), following the supplier's protocol. The number of living cells after the indicated treatments was quantified by measuring their metabolic activity by the WST1 test according to the supplier's indications (Roche).
(§4) The effect of siRNA transfection and/or treatments by different chemotherapeutic agents on gene expression was measured: • by RT-qPCR quantification of mRNAs extracted by a conventional phenol-chloroform method (Trizol). The amount of RNA was normalized by measuring the cyclophilin A-encoding mRNA which is not regulated by AR (delta delta CT method). • by Western blotting on protein extracts. The antibodies used are: AR: Santacruz, N-20 sc-816; H2AX: Merck Millipore ref 07-627; Tubulin: Sigma T6199; Actin: Merck Millipore MAB 1501; γH2AX: Merck Millipore 05-636. […] The antibodies used are the following: γH2AX: Merck Millipore 05-636; 53BP1: Novus, NB 100-304.
(§5) In the experiment shown in FIG. 8, C4-2 cells were transfected with a control or siARH2AX-1 siRNA. 72 hours after transfection, the cells were then treated for 6 hours with […] of bleomycin or the corresponding vehicle.

53BP1 = assay: Indirect immunofluorescence of 53BP1, bleomycin-treated transfected cells; format: cell-based, human; settings: C4-2 cells transfected with Cont siRNA, 6 hours with 10 μl of bleomycin
Description: as §1, §2, §3, §4, §5

H2AX-encoding mRNA = assay: RT-qPCR of H2AX-encoding mRNA after siRNA transfection; format: cell-based, human; settings: for H2AX mRNA expression: both lines
Description: as §2, §3, §4

AR-encoding mRNA = assay: RT-qPCR of AR-encoding mRNA after siRNA transfection; format: cell-based, human; settings: for AR mRNA expression: both lines
Description: as §2, §3, §4

C4-2 cells = assay: WST1 cell viability test; format: cell-based, human
Description: as §2, §3

MDA MB231 cells = assay: WST1 cell viability test; format: cell-based, human; settings: for cell viability, siRNA combined with etoposide: 40 μl of etoposide added 24 hours after transfection, WST1 48 h later
Description: as §2, §3

LNCaP cells = assay: WST1 cell viability test; format: cell-based, human; settings: 72 hr after transfection
Description: as §2, §3

PSA-encoding mRNA = assay: RT-qPCR of PSA-encoding mRNA after siRNA transfection; format: cell-based, human; settings: LNCaP or C4-2 cells, both lines, 72 hours after transfection
Description: as §2, §3, §4
In the experiment shown in FIG. 4, the LNCaP or C4-2 tumor cells were transfected with the following siRNAs: Cont, siAR7 or siARH2AX-1.

WM266-4 cells = assay: WST1 cell viability test; format: cell-based, human; settings: for cell viability, siRNA combined with etoposide: 40 μl of etoposide added 24 hours after transfection, WST1 48 h later
Description: as §2, §3

22RV1 cells = assay: WST1 cell viability test; format: cell-based, human; settings: 72 hr after transfection
Description: as §2, §3

AR = assay: Western blot of AR after siRNA transfection; format: cell-based, human; settings: C4-2 cells, 72 h after transfection
Description: as §2, §3, §4

MDA MB-453 cells = assay: WST1 cell viability test; format: cell-based, human; settings: 72 hr after transfection
Description: as §2, §3

U87 cells = assay: WST1 cell viability test; format: cell-based, human; settings: 72 hr after transfection
Description: as §2, §3

H2AX = assay: Western blot of H2AX after siRNA transfection; format: cell-based, human; settings: C4-2 cells, 72 h after transfection
Description: as §2, §3, §4

[2] = C4-2 cells, 48 hours after transfection, relative to control siRNA
[3] = LNCaP or C4-2 cells, 72 hours after transfection
[4] = LNCaP or MDA MB-453 cells, 72 h after transfection

`COc1cc([C@@H]2c3cc4c(cc3[C@@H](O[C@@H]3O[C@@H]5CO[C@@H](C)O[C@H]5[C@H](O)[C@H]3O)[C@H]3COC(=O)[C@H]23)OCO4)cc(OC)c1O` [etoposide] was tested, and the tumor development ([1]; etoposide 5 mg/kg intraperitoneal) was “only slightly inhibits tumor development” and the tumor development ([1]; etoposide 15 mg/kg intraperitoneal) was “produces an inhibition”.

With bleomycin the “expression of γH2AX” value (γH2AX; C4-2 cells transfected with Cont siRNA, 6 hours with 10 μl of bleomycin) was “strongly increases” and the 53BP1 labeling (53BP1) was “becomes punctiforme”.

For “siAR2: siRNA inhibiting AR described in PCT/FR2002/003843, SEQ ID NO 9 and SEQ ID NO 10 (chain 1 GACUCAGCUGCCCCAUCCACGNN; chain 2 CGUGGAUGGGGCAGCUGAGUCNN; chemistry not fully specified)”, the “H2AX expression (mRNA)” value (H2AX-encoding mRNA; [2]) was “considerably less effective at inhibiting the expression of H2AX”, the “AR expression (mRNA)” value (AR-encoding mRNA; [2]) was “inhibit AR expression in a similar manner” and the cell viability (C4-2 cells; 90 hours after transfection) was “only marginally”. The “cell viability, siRNA combined with bleomycin” value (C4-2 cells; bleomycin (10 μM) added 48 hours after transfection, read 48 hours later, versus chemotherapeutic agent alone) was “does not produce a significantly greater viability-inhibiting effect”, the “cell viability, siRNA combined with etoposide” value (shortened to “cell viability … with etoposide”) (C4-2 cells; etoposide (10 μM) added 48 hours after transfection, read 48 hours later, versus chemotherapeutic agent alone) was “does not produce a significantly greater viability-inhibiting effect” and the cell viability (MDA MB231 cells; 90 hours after transfection) was “only marginally”.

“siAR7: siRNA hybridizing with a sequence of the 7th exon of AR, not H2AX; SEQ ID NO 13 and 14 (chain 1 AAUGAUACGAUCGAGUUCCNN; chain 2 GGAACUCGAUCGUAUCAUUNN; chemistry not fully specified)” was tested, and the “γH2AX labeling after bleomycin” value (γH2AX; siRNA-transfected C4-2 cells, 72 hours after transfection, bleomycin 6 hours) was “increase in γH2AX labeling”, the “H2AX mRNA expression” value (H2AX-encoding mRNA; [3]) was “only siARH2AX-1 also inhibits the expression of H2AX” and the “AR mRNA expression” value (AR-encoding mRNA; [3]) was “inhibit the expression of AR and PSA”. The “cell viability / proliferation” value (C4-2 cells; 72 hr after transfection) was “inhibit the proliferation”, the “cell viability / proliferation” value (LNCaP cells) was “inhibit the proliferation” and the “PSA mRNA expression” value (PSA-encoding mRNA) was “inhibit the expression of AR and PSA”.

In the case of “siARh: siRNA hybridizing with a sequence of the first exon of AR, not H2AX; SEQ ID NO 11 and 12 (chain 1 UCCCCAAGCCCAUCGUAGANN; chain 2 UCUACGAUGGGCUUGGGGANN; chemistry not fully specified)”, the “AR mRNA expression” value (AR-encoding mRNA; [4]) is reported as “inhibits AR”, the “cell viability … with etoposide” value (MDA MB231 cells) is reported as “no amplification of the effects of etoposide” and the “cell viability … with etoposide” value (WM266-4 cells) is reported as “no amplification of the effects of etoposide”. The “cell viability / proliferation” value (22RV1 cells) was “inhibit the proliferation” and the AR protein expression (AR) was “inhibits AR”.

For “siH2AX: siRNA hybridizing with H2AX mRNA but not with that of AR; SEQ ID NO 15 and 16 (chain 1 CUGGAAUUCUGCAGCUAACNN; chain 2 GUUAGCUGCAGAAUUCCAGNN; chemistry not fully specified)”, the “H2AX mRNA expression” value (H2AX-encoding mRNA; [4]) was “inhibits H2AX”, the “cell viability / proliferation” value (MDA MB-453 cells) was “has little effect on cell proliferation” and the “cell viability … with etoposide” value (MDA MB231 cells) was “no amplification of the effects of etoposide”. For the same compound, the “cell viability / proliferation” value (MDA MB231 cells; 72 hr after transfection) was “has little effect on cell proliferation”, the “cell viability … with etoposide” value (WM266-4 cells) was “no amplification of the effects of etoposide” and the “cell viability / proliferation” value (WM266-4 cells; 72 hr after transfection) was “has little effect on cell proliferation”. The “cell viability / proliferation” value (U87 cells) was “has little effect on cell proliferation”, the “cell viability / proliferation” value (22RV1 cells) was “has little effect on cell proliferation” and the H2AX protein expression (H2AX) was “inhibits H2AX”.
